The IC50 is the concentration that gives 50% inhibition.

Drawing on ChEMBL document CHEMBL5055672, “Design, Synthesis, Biological Evaluation, and Computational Studies of Novel Fluorinated Candidates as PI3K Inhibitors: Targeting Fluorophilic Binding Sites” (J Med Chem, 2021), this text covers inhibition of growth, selectivity ratio and IC50 for 14 compounds.

Data set [1] deals with MCF7. Kind of data set: Cytotoxicity against human MCF7 cells assessed as growth inhibition at 10 uM after 48 hrs by sulforhodamine B assay. Type of data set: functional. Particulars: read-out: GI.
Data set [2] can be described thus: Selectivity index, ratio of IC50 for human MCF-10A cells to IC50 for human MCF7 cells. Type of data set: toxicity. Particulars: MCF-10A cells versus MCF7 cells, read-out: Ratio IC50.
For data set [3], the system named is MCF7. Kind of data set: Antiproliferative activity against human MCF7 cells assessed as inhibition of cell growth incubated for 48 hrs by MTT assay. Type of data set: functional, cell-based. Particulars: MCF7, 48 h. For orientation: Tetrazolium dyes change colour on reduction, which living cells bring about.
The test system of a further data set is MCF-10A. Kind of data set: Cytotoxicity against human MCF10A cells assessed as inhibition of cell growth incubated for 48 hrs by MTT assay. In kind it is cell-based.
For another data set, the system named is SR. The experiment in a line: Cytotoxicity against human SR cells assessed as growth inhibition at 10 uM after 48 hrs by sulforhodamine B assay. In kind it is functional. The conditions noted are these: read-out: GI. Background: Sulforhodamine B stains cellular protein and so reports cell mass.
Another data set concerns UO-31. Kind of data set: Cytotoxicity against human UO-31 cells assessed as growth inhibition at 10 uM after 48 hrs by sulforhodamine B assay. Type of data set: functional. Particulars: read-out: GI.
Another data set concerns SN12C. Kind of data set: Cytotoxicity against human SN12C cells assessed as growth inhibition at 10 uM after 48 hrs by sulforhodamine B assay. Type of data set: functional. Particulars: read-out: GI.
Another data set relates to NCI-H226. Kind of data set: Cytotoxicity against human NCI-H226 cells assessed as growth inhibition at 10 uM after 48 hrs by sulforhodamine B assay. Particulars: read-out: GI. Type of data set: functional.
Another data set deals with K562. The experiment in a line: Cytotoxicity against human K562 cells assessed as growth inhibition at 10 uM after 48 hrs by sulforhodamine B assay. In kind it is functional. Particulars: read-out: GI.
For a further data set, the system named is T47D. The experiment in a line: Cytotoxicity against human T47D cells assessed as growth inhibition at 10 uM after 48 hrs by sulforhodamine B assay. In kind it is functional. The conditions noted are these: read-out: GI.
For the next data set, the system named is HOP-62. Kind of data set: Cytotoxicity against human HOP-62 cells assessed as growth inhibition at 10 uM after 48 hrs by sulforhodamine B assay. Particulars: read-out: GI. Type of data set: functional.
The test system of another data set is OVCAR-4. Kind of data set: Cytotoxicity against human OVCAR-4 cells assessed as growth inhibition at 10 uM after 48 hrs by sulforhodamine B assay. Type of data set: functional. Particulars: read-out: GI.
The next data set has as its system UACC-62. The experiment in a line: Cytotoxicity against human UACC-62 cells assessed as growth inhibition at 10 uM after 48 hrs by sulforhodamine B assay. Particulars: read-out: GI. Type of data set: functional.
A further data set concerns CAKI-1. Kind of data set: Cytotoxicity against human CAKI-1 cells assessed as growth inhibition at 10 uM after 48 hrs by sulforhodamine B assay. In kind it is functional. Particulars: read-out: GI.
A further data set deals with NCI-H522. Kind of data set: Cytotoxicity against human NCI-H522 cells assessed as growth inhibition at 10 uM after 48 hrs by sulforhodamine B assay. Particulars: read-out: GI. Type of data set: functional.
The next data set concerns HL-60(TB). The experiment in a line: Cytotoxicity against human HL-60(TB) cells assessed as growth inhibition at 10 uM after 48 hrs by sulforhodamine B assay. The conditions noted are these: read-out: GI. In kind it is functional.
The target in data set [4] is T1, Phosphatidylinositol 4,5-bisphosphate 3-kinase catalytic subunit delta isoform (Homo sapiens, UniProt O00329).
T1 sequence (O00329 whole entry): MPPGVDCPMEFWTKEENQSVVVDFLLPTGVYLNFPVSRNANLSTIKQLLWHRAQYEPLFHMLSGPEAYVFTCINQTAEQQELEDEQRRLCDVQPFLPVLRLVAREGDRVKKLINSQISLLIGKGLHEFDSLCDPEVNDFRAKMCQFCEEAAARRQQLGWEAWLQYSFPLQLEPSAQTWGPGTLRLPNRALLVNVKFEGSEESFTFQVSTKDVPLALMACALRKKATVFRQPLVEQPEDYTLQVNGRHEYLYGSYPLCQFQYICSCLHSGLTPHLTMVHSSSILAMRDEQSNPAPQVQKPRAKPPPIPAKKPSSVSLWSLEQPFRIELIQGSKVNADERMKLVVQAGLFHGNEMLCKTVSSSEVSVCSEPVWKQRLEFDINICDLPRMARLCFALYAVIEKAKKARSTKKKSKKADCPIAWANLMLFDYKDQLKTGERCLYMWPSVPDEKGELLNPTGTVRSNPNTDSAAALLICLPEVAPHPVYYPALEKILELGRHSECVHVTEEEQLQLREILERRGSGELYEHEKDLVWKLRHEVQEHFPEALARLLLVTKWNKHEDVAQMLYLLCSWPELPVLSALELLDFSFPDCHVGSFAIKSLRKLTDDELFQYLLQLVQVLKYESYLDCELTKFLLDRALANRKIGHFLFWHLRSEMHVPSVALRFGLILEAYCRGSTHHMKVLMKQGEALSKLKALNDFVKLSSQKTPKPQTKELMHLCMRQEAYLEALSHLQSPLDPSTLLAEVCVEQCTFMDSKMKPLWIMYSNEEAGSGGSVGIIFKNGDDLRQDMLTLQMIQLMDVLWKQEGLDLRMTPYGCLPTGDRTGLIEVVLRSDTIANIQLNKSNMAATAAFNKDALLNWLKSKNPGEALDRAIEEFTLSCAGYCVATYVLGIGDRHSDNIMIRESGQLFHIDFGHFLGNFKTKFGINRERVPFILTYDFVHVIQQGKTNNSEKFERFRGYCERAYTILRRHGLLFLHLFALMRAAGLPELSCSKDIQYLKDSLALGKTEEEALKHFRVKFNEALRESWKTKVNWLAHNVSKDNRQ
Kind of data set: Inhibition of PI3Kdelta (unknown origin) using PIP2 as substrate preincubated for 10 mins followed by substrate addition and measured after 1 hr by ELISA.

Another data set concerns EKVX. Kind of data set: Cytotoxicity against human EKVX cells assessed as growth inhibition at 10 uM after 48 hrs by sulforhodamine B assay. Type of data set: functional. The conditions noted are these: read-out: GI.
For the next data set, the system named is SF-539. Kind of data set: Cytotoxicity against human SF-539 cells assessed as growth inhibition at 10 uM after 48 hrs by sulforhodamine B assay. Type of data set: functional. The conditions noted are these: read-out: GI.
A short description of data set [5]: Cytotoxicity against human Hs 578T cells assessed as growth inhibition at 10 uM after 48 hrs by sulforhodamine B assay. Particulars: read-out: GI. Type of data set: functional.
The subject of another data set is SF-268. Kind of data set: Cytotoxicity against human SF-268 cells assessed as growth inhibition at 10 uM after 48 hrs by sulforhodamine B assay. Type of data set: functional. The conditions noted are these: read-out: GI.
Another data set concerns CCRF-CEM. Kind of data set: Cytotoxicity against human CCRF-CEM cells assessed as growth inhibition at 10 uM after 48 hrs by sulforhodamine B assay. Type of data set: functional. Particulars: read-out: GI.
For the next data set, the system named is U-251. Kind of data set: Cytotoxicity against human U-251 cells assessed as growth inhibition at 10 uM after 48 hrs by sulforhodamine B assay. Type of data set: functional. Particulars: read-out: GI.
For another data set, the system named is SNB-19. Kind of data set: Cytotoxicity against human SNB-19 cells assessed as growth inhibition at 10 uM after 48 hrs by sulforhodamine B assay. Type of data set: functional. Particulars: read-out: GI.
A further data set deals with MOLT-4. Kind of data set: Cytotoxicity against human MOLT-4 cells assessed as growth inhibition at 10 uM after 48 hrs by sulforhodamine B assay. Type of data set: functional. The conditions noted are these: read-out: GI.
The test system of a further data set is MDA-MB-231. The experiment in a line: Cytotoxicity against human MDA-MB-231 cells assessed as growth inhibition at 10 uM after 48 hrs by sulforhodamine B assay. Type of data set: functional. Particulars: read-out: GI.

For the compound `FC(F)(F)COc1ccc(/C=N/N=c2\scc(-c3ccccc3)n2-c2ccccc2)cc1`, in the data set on MCF7 [1], the inhibition of growth at 10 µM is 53.4%.

For `O=S(=O)(Oc1ccc(/C=N/N=c2\scc(-c3ccccc3)n2-c2ccccc2)cc1)C(F)(F)C(F)(F)C(F)(F)C(F)(F)C(F)(F)C(F)(F)C(F)(F)C(F)(F)F`, the inhibition of growth at 10 µM in the data set on MCF7 [1] turned out to be 46.1%.

On to `COc1cc([C@@H]2c3cc4c(cc3[C@@H](O[C@@H]3O[C@@H]5CO[C@@H](C)O[C@H]5[C@H](O)[C@H]3O)[C@H]3COC(=O)[C@H]23)OCO4)cc(OC)c1O` [ETOPOSIDE], for which the selectivity ratio in data set [2] was 3.86. Moreover, the values for the IC50 with MCF7 [3] and in the data set with MCF-10A were 12.6 µM and 84.7 µM, respectively.

On to `O=S(=O)(Oc1ccc(/C=N/N=c2\scc(-c3ccccc3)n2-c2ccccc2)cc1)C(F)(F)C(F)(F)C(F)(F)C(F)(F)C(F)(F)C(F)(F)F`, for which the inhibition of growth at 10 µM in the data set on MCF7 [1] came to 43.5%.

Turning to `O=S(=O)(Oc1ccc(-c2nnc(Nc3ccccc3)s2)cc1)C(F)(F)C(F)(F)C(F)(F)C(F)(F)F`, the inhibition of growth at 10 µM in the data set with MCF7 [1] came to 12.8%; in the data set with SR, 10.1%; in the data set with UO-31, 19.9%; in the data set on SN12C it was 14.5%; with NCI-H226 it was 15.8%; in the data set with K562, 12.6%. Also, the inhibition of growth at 10 µM in the data set on T47D is 14.1%; in the data set with HOP-62, 12.4%; with OVCAR-4 it was 17.2%; with UACC-62 it was 10.7%; with CAKI-1, 22.1%.

As for `COc1cccc2c1C(=O)c1c(O)c3c(c(O)c1C2=O)C[C@@](O)(C(=O)CO)C[C@@H]3O[C@H]1C[C@H](N)[C@H](O)[C@H](C)O1` [DOXORUBICIN], the IC50 in the data set with MCF-10A worked out at 19 µM.

On to `FC(F)(F)c1ccc(/C=N/N=c2\scc(-c3ccccc3)n2-c2ccccc2)cc1`, for which the inhibition of growth at 10 µM with MCF7 [1] was determined as 41.1%.

For the compound `O=S(=O)(Oc1ccc(/C=N/NC(=S)Nc2ccccc2)cc1)C(F)(F)C(F)(F)C(F)(F)C(F)(F)C(F)(F)C(F)(F)C(F)(F)C(F)(F)F`, the inhibition of growth at 10 µM in the data set on UO-31 stood at 13.3%; in the data set with NCI-H522 it was 10.1%.

In the case of `FC(F)(F)c1ccc(-c2nnc(Nc3ccccc3)s2)cc1`, the inhibition of growth at 10 µM in the data set on MCF7 [1] was 11.4%; in the data set with SR, 24.9%; with HL-60(TB), 26.2%; in the data set with K562, 13.7%; with NCI-H522, 11%; with CAKI-1 it was 11.7%.

As for `O=c1cc(N2CCOCC2)oc2c(-c3ccccc3)cccc12` [LY-294002], the IC50 in data set [4] turned out to be 14.9 µM.

For `COC(=O)/C=C1\S/C(=N\N=C\c2ccc(OS(=O)(=O)C(F)(F)C(F)(F)C(F)(F)C(F)(F)F)cc2)N(c2ccccc2)C1=O`, the inhibition of growth at 10 µM in the data set with MCF7 [1] was found to be 10%; in the data set on UACC-62, 21.6%.

As to `FC(F)(F)c1ccc(/C=N/NC(=S)Nc2ccccc2)cc1`, the inhibition of growth at 10 µM with EKVX was 10.3%.

For the compound `COC(=O)/C=C1\S/C(=N\N=C\c2ccc(OS(=O)(=O)C(F)(F)C(F)(F)C(F)(F)C(F)(F)C(F)(F)C(F)(F)F)cc2)N(c2ccccc2)C1=O`, the inhibition of growth at 10 µM stood at 13.7% with SF-539; 32.7% in the data set with SR; 23.7% in data set [5]; 10.4% in the data set with SF-268; 39% in the data set on K562; 22.7% with CCRF-CEM. Also, the inhibition of growth at 10 µM with U-251 was found to be 10.4%; in the data set with HOP-62, 13.1%; in the data set with SNB-19, 26.4%; with MOLT-4 it was 13.4%; in the data set with UACC-62, 17.6%; in the data set with CAKI-1 it was 28%. Moreover, the inhibition of growth at 10 µM with MDA-MB-231 amounted to 12.8%.

As to `O=S(=O)(Oc1ccc(-c2nnc(Nc3ccccc3)s2)cc1)C(F)(F)C(F)(F)C(F)(F)C(F)(F)C(F)(F)C(F)(F)F`, the inhibition of growth at 10 µM stood at 80.5% with SR, 29.4% in the data set with HL-60(TB) and 13.1% with MDA-MB-231.
